Entries after “also recorded” stand apart in the source; their conditions may differ. Counter-ions that a name gives are not always drawn.
Legend:
Type in all cases: physicochemical
[1] = Stability determination (thermal stability and photostability, HPLC purity, appearance, XRPD); details: for XRPD: crystalline form found
Experimental: (§1) The stability and solubility of the crystalline free form of the compound of formula (I) or the basic salt thereof of the present application were determined by HPLC.
An appropriate amount of the sample was placed in a vial and left to stand at 50 °C, 80 °C or 50 °C & 75% RH (open) for 7 days to evaluate thermal stability. An appropriate amount of the sample was placed in a transparent vial, […] evaluation under conditions of overall near-ultraviolet energy of 1.2 * 10^6 Lux·hr and no less than 200 W·hr/m2.

[2] = Hygroscopic behavior test by dynamic vapor sorption (DVS)
Source text: The experimental method of characterizing the crystalline free form of the compound of formula (I) or the basic salt thereof using dynamic vapor sorption (DVS) is as follows: a small amount of the crystalline sample was placed in a precision sample tray that was compatible with the instrument; after the sample was loaded, the sample tray was placed into the instrument for analysis. In this patent, the instruments used for dynamic vapor sorption were all the DVS Intrinsic plus model, and the following experimental parameters were set: nitrogen was used as the carrier gas, a constant temperature of 25 °C was set, the rate of mass percentage change over a unit of time (dm/dt) = 0.002%/min was used as a criterion for determining if equilibrium is reached, and the program humidity change cycle was set to 50-95-0-95-50% RH; within the range of 0-90% RH, a change of 10% RH was taken as a step, and within the range of 90% RH-95% RH, a change of 5% RH was taken as a step.
In the present invention, the hygroscopic weight increases (hygroscopic weight increase/weight before hygroscopy * 100%) of various crystalline forms under various relative humidity conditions were determined using the dynamic vapor sorption method, and the hygroscopicity of different crystalline compounds was evaluated.

[3] = Solubility determination (equilibrium solubility, 24 hrs stirring at room temperature, HPLC); details: for Equilibrium solubility: target concentration 2000 µg/mL, 24 hrs; for pH24 hrs: pH of the filtrate after 24 hrs
Experimental: as §1
The desired amount of the compound was weighed into a glass vial, and the desired amount of a vehicle was added. A stir bar was added to the vial, and the mixture was stirred at room temperature for 24 hrs. After 24 hrs, the appearance of the sample was observed. An appropriate amount of the sample was filtered through a PVDF 0.45 µm filter membrane, and the filtrate was collected. The pH value of the filtrate was determined, and the sample was diluted with MeOH. The diluted sample was injected into an HPLC system to determine the concentration.

[4] = Aluminum foil light exposure control, 9.2 days
[5] = Brown vial light exposure control, 9.2 days
[6] = Transparent light exposure, 9.2 days
[7] = Relative humidity 0.0 % at 25 °C
[8] = Relative humidity 10.0 % at 25 °C
[9] = Relative humidity 20.0 % at 25 °C
[10] = Relative humidity 30.0 % at 25 °C
[11] = Relative humidity 40.0 % at 25 °C
[12] = Relative humidity 50.0 % at 25 °C
[13] = Relative humidity 60.0 % at 25 °C
[14] = Relative humidity 70.0 % at 25 °C
[15] = Relative humidity 80.0 % at 25 °C
[16] = pH 4.7, 50 mM acetic acid buffer
[17] = pH 6.8, 50 mM phosphoric acid buffer

In the case of `Cc1c(NC(=O)c2cc(C3CC3)c(CN3CCCC[C@H]3C(=O)O)cn2)cccc1-c1cccc(NC(=O)c2cc(C3CC3)c(CN3CCCC[C@H]3C(=O)O)cn2)c1C` [crystalline form A of disodium salt hydrate] [(2S,2'S)-1,1'-(((((2,2'-dimethyl-[1,1'-biphenyl]-3,3'-diyl)bis(azanediyl))bis(carbonyl))bis(4-cyclopropylpyridine-6,3-diyl))bis(methylene))bis(piperidine-2-carboxylic acid)], the “physical and chemical stability (in words)” value ([1]; 50 °C, 50 °C/75% RH or brown light exposure) is reported as “relatively high physical and chemical stability”, the Appearance ([1]; 50 °C, 7 days) is reported as “White powder” and the “Purity (%)” value ([1]; 50 °C, 7 days) is reported as 99.45%. The Appearance ([1]; 50 °C/75%RH, 7 days) was “White powder”, the “Purity (%)” value ([1]; 50 °C/75%RH, 7 days) was 99.46% and the Appearance ([1]; 80 °C, 7 days) was “White powder”. For the same molecule, the “Purity (%)” value ([1]; 80 °C, 7 days) was 99.34%, the Appearance [1, 4] was “White powder” and the “Purity (%)” value [1, 4] was 99.51%. For the same molecule, the Appearance [1, 5] was “White powder”, the “Purity (%)” value [1, 5] was 99.50% and the Appearance ([1]; Initial, 0 days) was “White powder”. For the same molecule, the “Purity (%)” value ([1]; Initial, 0 days) was 99.38%, the Appearance [1, 6] was “White powder” and the “Purity (%)” value [1, 6] was 99.22%. For the same molecule, the XRPD ([1]; 50 °C, 7 days) was “Crystalline form A of disodium salt”, the XRPD ([1]; 50 °C/75%RH, 7 days) was “Crystalline form A of disodium salt” and the XRPD ([1]; 80 °C, 7 days) was “Crystalline forms A + B of disodium salt”. The XRPD [1, 4] was “Crystalline form A of disodium salt”, the XRPD [1, 5] was “Crystalline form A of disodium salt” and the XRPD ([1]; Initial, 0 days) was “Crystalline form A of disodium salt”. The XRPD [1, 6] was “Crystalline forms A + B of disodium salt”, the “crystalline form transformation (in words)” value ([1]; high temperature and light exposure) was “underwent crystalline form transformation; also recorded: undergoes crystalline form transformation” and the “chemical stability (in words)” value ([1]; various stability testing conditions, incl. high temperature and light exposure) was “good chemical stability; also recorded: relatively high chemical stability”. The “Hygroscopic weight increase (%)” value [2, 7] was 0.00%, the “Hygroscopic weight increase (%)” value [2, 8] was 2.40% and the “Hygroscopic weight increase (%)” value [2, 9] was 7.45%. For the same molecule, the “Hygroscopic weight increase (%)” value [2, 10] was 9.28%, the “Hygroscopic weight increase (%)” value [2, 11] was 10.62% and the “Hygroscopic weight increase (%)” value [2, 12] was 11.64%. The “Hygroscopic weight increase (%)” value [2, 13] was 12.43%, the “Hygroscopic weight increase (%)” value [2, 14] was 13.25% and the “Hygroscopic weight increase (%)” value [2, 15] was 14.59%. The “crystalline form changes after DVS testing” value [2] was “no crystalline form changes”, the weight increased ([2]; at 80% RH) was “more than 10%” and the Equilibrium solubility ([3]; FaSSGF) was 22 µg/mL. The Equilibrium solubility ([3]; FaSSIF) was 303 µg/mL, the Equilibrium solubility ([3]; FeSSIF) was over 2000 µg/mL and the Equilibrium solubility ([3]; Water, room temperature) was over 2000 µg/mL. It also gave an Equilibrium solubility ([3]; pH 1.2, HCl 100 mM) of 1120 µg/mL, an Equilibrium solubility [3, 16] of 25 µg/mL and an Equilibrium solubility [3, 17] of 34 µg/mL. It also gave a pH24 hrs ([3]; FaSSGF) of 1.73, a pH24 hrs ([3]; FaSSIF) of 6.93 and a pH24 hrs ([3]; FeSSIF) of 7.95. The pH24 hrs ([3]; Water) was 9.61, the pH24 hrs ([3]; pH 1.2, HCl 100 mM) was 1.01 and the pH24 hrs [3, 16] was 4.61. It also gave a pH24 hrs [3, 17] of 6.88.

With `Cc1c(NC(=O)c2cc(C3CC3)c(CN3CCCC[C@H]3C(=O)O)cn2)cccc1-c1cccc(NC(=O)c2cc(C3CC3)c(CN3CCCC[C@H]3C(=O)O)cn2)c1C` [free-form crystalline form C, (2S,2'S)-1,1'-(((((2,2'-dimethyl-[1,1'-biphenyl]-3,3'-diyl)bis(azanediyl))bis(carbonyl))bis(4-cyclopropylpyridine-6,3-diyl))bis(methylene))bis(piperidine-2-carboxylic acid)] the “physical and chemical stability (in words)” value ([1]; 50 °C, 50 °C/75% RH (open), 80 °C for 7 days and photostress for 10 days) was “extremely high physical and chemical stability”, the Appearance ([1]; 50 °C, 7 days) was “White powder” and the “Purity (%)” value ([1]; 50 °C, 7 days) was 98.31%. The Appearance ([1]; 50 °C/75%RH, 7 days) was “White powder”, the “Purity (%)” value ([1]; 50 °C/75%RH, 7 days) was 98.43% and the Appearance ([1]; 80 °C, 7 days) was “White powder”. The “Purity (%)” value ([1]; 80 °C, 7 days) was 97.90%, the Appearance [1, 4] was “White powder” and the “Purity (%)” value [1, 4] was 98.51%. For the same molecule, the Appearance ([1]; Initial, 0 days) was “White powder”, the “Purity (%)” value ([1]; Initial, 0 days) was 98.42% and the Appearance [1, 6] was “White powder”. For the same molecule, the “Purity (%)” value [1, 6] was 97.91%, the XRPD ([1]; 50 °C, 7 days) was “Free-form crystalline form C” and the XRPD ([1]; 50 °C/75%RH, 7 days) was “Free-form crystalline form C”. The XRPD ([1]; 80 °C, 7 days) was “Free-form crystalline form C”, the XRPD [1, 4] was “Free-form crystalline form C” and the XRPD ([1]; Initial, 0 days) was “Free-form crystalline form C”. The XRPD [1, 6] was “Free-form crystalline form C”, the “hygroscopicity (in words)” value ([2]; DVS, 25 °C) was “moderately hygroscopic; also recorded: moderate hygroscopicity” and the “Hygroscopic weight increase (%)” value [2, 7] was 0.00%. For the same molecule, the “Hygroscopic weight increase (%)” value [2, 8] was 0.50%, the “Hygroscopic weight increase (%)” value [2, 9] was 0.75% and the “Hygroscopic weight increase (%)” value [2, 10] was 0.80%. For the same molecule, the “Hygroscopic weight increase (%)” value [2, 11] was 1.20%, the “Hygroscopic weight increase (%)” value [2, 12] was 1.35% and the “Hygroscopic weight increase (%)” value [2, 13] was 1.50%. For the same molecule, the “Hygroscopic weight increase (%)” value [2, 14] was 1.75%, the “Hygroscopic weight increase (%)” value [2, 15] was 2.21% and the “Hygroscopic weight increase (%)” value ([2]; Relative humidity 90.0 % at 25 °C) was 2.95%. For the same molecule, the “crystalline form changes after DVS testing” value [2] was “no crystalline form changes”, the Equilibrium solubility ([3]; FaSSGF) was 8.9 µg/mL and the Equilibrium solubility ([3]; FaSSIF) was 3.21 µg/mL. The Equilibrium solubility ([3]; FeSSIF) was 5.34 µg/mL, the Equilibrium solubility ([3]; Water, room temperature) was 3.84 µg/mL and the “solubility (in words)” value ([3]; buffer system having a pH of 1.2, compared to the other test conditions) was “improved solubility”. The Equilibrium solubility ([3]; pH 1.2, HCl 100 mM) was 18.92 µg/mL, the Equilibrium solubility [3, 16] was 3.3 µg/mL and the Equilibrium solubility [3, 17] was 2.31 µg/mL. For the same molecule, the pH24 hrs ([3]; FaSSGF) was 1.56, the pH24 hrs ([3]; FaSSIF) was 6.41 and the pH24 hrs ([3]; FeSSIF) was 4.90. It also gave a pH24 hrs ([3]; Water) of 6.78, a pH24 hrs ([3]; pH 1.2, HCl 100 mM) of 1.30 and a pH24 hrs [3, 16] of 4.77. For the same molecule, the pH24 hrs [3, 17] was 6.89.

Reference: EP4806890A1, “CRYSTALLINE COMPOUND OR BASIC SALT THEREOF, PREPARATION METHOD THEREFOR, AND USE THEREOF” (Abbisko Therapeutics Co., Ltd., priority 2023, dated 2025)
